# Assay results taken from patent publication US5225528A, “Cyclic hexapeptide oxytocin antagonists” (priority 1990, dated 1993).
# Numbered stars: 1 amine (or outer) side, 2 acyl side, 3 side chain; on linkers, the order of the positions; unused ones are H or OH. Square brackets hold non-standard residues; d marks the D form. Peptide text beside a SMILES is read from it. * marks the point of attachment. ξ: configuration not given here. X2 = O=C(OCc1ccccc1)N1CCN([*:1])[C@H](C(=O)[*:2])C1; d2Nal = N[C@H](Cc1ccc2ccccc2c1)C(=O)O; dHis(π-Me) = Cn1cncc1C[C@@H](N)C(=O)O; d(aIle) = CC[C@H](C)[C@@H](N)C(=O)O; X12 = O=C([C@@H]1CCCNN1[*:1])[*:2]; Pip(4-aza) = O=C(O)[C@@H]1CNCCN1; X6 = O=C([C@H]1CCCNN1[*:1])[*:2]; dNMeF = CN[C@H](Cc1ccccc1)C(=O)O; dPip(4-aza) = O=C(O)[C@H]1CNCCN1; Cha = N[C@@H](CC1CCCCC1)C(=O)O; dChg = N[C@@H](C(=O)O)C1CCCCC1; dPhg = N[C@@H](C(=O)O)c1ccccc1; ξmTyr = NC(Cc1cccc(O)c1)C(=O)O; Chg = N[C@H](C(=O)O)C1CCCCC1; Phg = N[C@H](C(=O)O)c1ccccc1; dPip = O=C(O)[C@H]1CCCCN1; NMeA = CN[C@@H](C)C(=O)O; dNMeA = CN[C@H](C)C(=O)O; Boc = CC(C)(C)OC(=O)*; Bn = c1ccc(C*)cc1
# Biological target: T1, uterine OT receptors (Rattus norvegicus, UniProt P70536)
# T1 construct: from tissue; host or cells: uterus of DES-treated rats, crude membranes
# T1 sequence (P70536 1-388): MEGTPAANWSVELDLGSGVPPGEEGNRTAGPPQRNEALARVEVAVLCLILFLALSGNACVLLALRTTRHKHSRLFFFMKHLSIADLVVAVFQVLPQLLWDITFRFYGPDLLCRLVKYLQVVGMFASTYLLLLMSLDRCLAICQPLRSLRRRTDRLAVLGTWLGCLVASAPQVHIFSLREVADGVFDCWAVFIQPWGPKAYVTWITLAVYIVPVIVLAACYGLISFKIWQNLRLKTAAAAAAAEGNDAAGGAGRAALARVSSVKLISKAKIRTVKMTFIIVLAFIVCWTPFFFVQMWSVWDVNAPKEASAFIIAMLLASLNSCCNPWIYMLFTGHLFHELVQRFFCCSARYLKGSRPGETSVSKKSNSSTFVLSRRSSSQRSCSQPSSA
# Assay: [^3 H]OT binding to uterine OT receptors, crude membrane preparation of uteri from DES-treated rats
# Conditions: 1 h; @ 1,000 (nM); read-out: [^3 H]OT: percent inhibition of radioligand at the given concentration
# Protocol: Competition studies were conducted at equilibrium (60 minutes; 22° C.) using 1 nM [^3 H]OT in the following assay buffer: 50 mM Tris-HCl, 5 mM MgCl2, and 0.1% BSA, pH 7.4.
row,inhibition at 1 µM,Molecule
1,77%,"CC[C@H](C)[C@@H]1NC(=O)[C@@H](Cc2ccccc2)NC(=O)[C@@H]2CCCN2C(=O)[C@@H](Cc2cncn2C)NC(=O)[C@@H]2CNCCN2C(=O)[C@H]2CCCCN2C1=O [Example 178, c-[D-Phenylalany-L-isoleucinyl-D-pipecolyl-L-piperazin-2-yl-D-(N^immethyl)histidinyl-L-prolyl]] (cyclo(I[dPip][Pip(4-aza)][dHis(π-Me)]P[dF]))"
2,68%,"CC[C@H](C)[C@@H]1NC(=O)C(Cc2cccc(O)c2)NC(=O)[C@@H]2CCCN2C(=O)[C@@H](Cc2ccccc2)N(C)C(=O)[C@H](CCCCNC(=O)OC(C)(C)C)NC(=O)[C@H]2CCCCN2C1=O (stereo partly drawn) [Example 143, C-[D,L-meta-Tyrosinyl-L-isoleucyl-D-pipecolyl-L-(N-t-butyloxycarbonyl)lysyl-D-(N-methyl)phenylalanyl-L-prolyl]] (cyclo(I[dPip]K(Boc)[dNMeF]P[ξmTyr]))"
3,49%,"CC[C@H](C)[C@@H]1NC(=O)[C@@H](Cc2ccccc2)NC(=O)[C@@H]2CCCN2C(=O)[C@@H](Cc2ccccc2)NC(=O)[C@@H]2CN(C(=O)OCc3ccccc3)CCN2C(=O)[C@H]2CCCN2C1=O [Example 163, c-[D-Phenylalanyl-L-isoleucinyl-D-prolyl-L-piperazin-2-yl(4-Cbz)-D-phenylalanyl-L-prolyl]] (cyclo([dF]I[dP][X2][dF]P))"

# Same assay, conditions: @ 1,000 (nM)
row,[^3 H]OT: percent inhibition of radioligand at the given concentration,Molecule
1,42%,c-[D-Phenylalanyl-L-isoleucinyl-D-pipecolyl-D-piperazin-2-yl(4-Cbz)-L-(BOM)histidyl-L-prolyl] [Example 93]

# Same assay, conditions: rat uterus membranes, 1 nM [^3 H]OT; read-out: Receptor Binding Results IC50 (nM) [^3 H]OT
row,Molecule,IC50
1,"CC[C@H](C)[C@@H]1NC(=O)[C@@H](Cc2ccccc2)NC(=O)[C@@H]2CCCN2C(=O)[C@@H](Cc2ccccc2)N(C)C(=O)[C@@H]2CCCN2C(=O)[C@H]2CCCN2C1=O [Example 52, c-[D-Phenylalanyl-L-isoleucyl-D-prolyl-L-prolyl-N-methyl-D-phenylalanyl-L-prolyl]] (cyclo([dNMeF]P[dF]I[dP]P))",3400 nM
2,"CC[C@H](C)[C@@H]1NC(=O)[C@@H](Cc2ccccc2)NC(=O)[C@@H]2CCCN2C(=O)[C@@H](CSCc2ccccc2)NC(=O)[C@@H]2CCCN2C(=O)[C@H]2CCCN2C1=O [Example 59, c-[D-Phenylalanyl-L-isoleucyl-D-prolyl-L-prolyl-D-crsteinyl(Bzl)-L-prolyl]] (cyclo([dC](Bn)P[dF]I[dP]P))",> 1000 nM
3,"CC[C@H](C)[C@@H]1NC(=O)[C@@H](Cc2ccccc2)NC(=O)[C@@H]2CCCN2C(=O)[C@@H]([C@H](C)O)NC(=O)[C@@H]2CCCN2C(=O)[C@H]2CCCN2C1=O [Example 62, c-[D-Phenylalanyl-L-isoleucyl-D-prolyl-L-prolyl-D-threoninyl-L-prolyl]] (cyclo([dT]P[dF]I[dP]P))",> 1000 nM
4,"CC[C@H](C)[C@@H]1NC(=O)[C@@H](Cc2ccccc2)NC(=O)[C@@H]2CCCN2C(=O)[C@@H](Cc2ccccc2)NC(=O)[C@H](C)NC(=O)[C@@H](C)NC1=O [Example 51, c-[D-Phenylalanyl-L-isoleucyl-D-alanyl-L-alanyl-D-phenylalanyl-L-prolyl]] (cyclo(A[dF]P[dF]I[dA]))",> 10000 nM
5,"CC[C@@H](C)[C@H]1NC(=O)[C@H](Cc2ccccc2)NC(=O)[C@H]2CCCN2C(=O)[C@H](Cc2ccccc2)NC(=O)[C@H]2CCCN2C(=O)[C@@H]2CCCN2C1=O [Example 60, c-[L-Phenylalanyl-D-isoleucyl-L-prolyl-D-prolyl-L-phenylalanyl-D-prolyl]] (cyclo(F[dI]P[dP]F[dP]))",> 10000 nM
6,"CC[C@H](C)[C@@H]1NC(=O)[C@@H](Cc2ccccc2)NC(=O)[C@@H]2CCCN2C(=O)[C@@H](Cc2ccccc2)NC(=O)[C@@H]2CCCN2C(=O)[C@H]2CCCN2C1=O [Example 53, c-[D-Phenylalanyl-L-isoleucyl-D-prolyl-L-prolyl-D-phenylalanyl-L-prolyl]] (cyclo([dF]P[dF]I[dP]P))",2600 nM
7,"O=C1N[C@H](Cc2ccccc2)C(=O)N2CCC[C@H]2C(=O)N[C@H](Cc2ccccc2)C(=O)N2CCC[C@H]2C(=O)N2CCC[C@@H]2C(=O)N2CCC[C@@H]12 [Example 64, c-[D-Phenylalanyl-L-prolyl-D-prolyl-L-prolyl-D-phenylalanyl-L-prolyl]] (cyclo([dF]P[dF]P[dP]P))",> 10000 nM
8,"CC[C@H](C)[C@@H]1NC(=O)[C@@H](Cc2ccccc2)NC(=O)[C@@H]2CCCN2C(=O)[C@@H](Cc2ccccc2)NC(=O)[C@H](C)N(C)C(=O)[C@@H](C)N(C)C1=O [Example 54, c-[D-Phenylalanyl-L-isoleucyl-N-methyl-D-alanyl-N-methyl-L-alanyl-D-phenylalanyl-L-prolyl]] (cyclo(I[dNMeA][NMeA][dF]P[dF]))",3000 nM
9,"CC[C@H](C)[C@@H]1NC(=O)[C@@H](Cc2ccccc2)NC(=O)[C@@H]2CCCN2C(=O)[C@@H]([C@H](C)OCc2ccccc2)NC(=O)[C@@H]2CCCN2C(=O)[C@H]2CCCN2C1=O [Example 61, c-[D-Phenylalanyl-L-isoleucyl-D-prolyl-L-prolyl-D-threoninyl(Bzl)-L-prolyl]] (cyclo([dT](Bn)P[dF]I[dP]P))",> 10000 nM
10,CC[C@H](C)[C@@H]1NC(=O)[C@@H](Cc2ccccc2)NC(=O)CNC(=O)[C@@H](CCC(N)=O)NC(=O)[C@@H]2CCCN2C(=O)[C@H]2CCCN2C1=O [Example 57] (cyclo([dF]I[dP]P[dQ]G)),> 10000 nM
11,"O=C1N[C@@H](CC2CCCCC2)C(=O)N2CCC[C@@H]2C(=O)N2CCC[C@H]2C(=O)N[C@H](Cc2ccccc2)C(=O)N2CCC[C@H]2C(=O)N[C@@H]1Cc1ccccc1 [Example 56, c-[D-Phenylalanyl-L-cyclohexylalanyl-D-prolyl-L-prolyl-D-phenylalanyl-L-prolyl]] (cyclo([dF]P[dF][Cha][dP]P))",> 10000 nM

# Results, then the molecule that gave them:
row,IC50,Molecule
1,> 10000 nM,"C[C@@H](OCc1ccccc1)[C@@H]1NC(=O)[C@@H](Cc2ccccc2)NC(=O)[C@@H]2CCCN2C(=O)[C@@H](Cc2ccccc2)NC(=O)[C@@H]2CCCN2C(=O)[C@H]2CCCN2C1=O [Example 72, c-[D-Phenylalanyl-L-(O-benzyl)-threoninyl-D-prolyl-L-prolyl-D-phenylalanyl-L-prolyl]] (cyclo([dF]P[dF]T(Bn)[dP]P))"
2,> 10000 nM,CCOc1ccc(C[C@H]2NC(=O)[C@@H]3CCCN3C(=O)[C@@H](Cc3ccccc3)NC(=O)[C@H](CC(N)=O)NC(=O)[C@@H](CCC(N)=O)NC(=O)[C@@H]([C@@H](C)CC)NC2=O)cc1 [Example 101] (cyclo(N[dF]P[dY](Et)[d(aIle)][dQ]))
3,> 10000 nM,CC[C@H](C)[C@@H]1NC(=O)[C@@H](Cc2ccc(O)cc2)NC(=O)[C@@H]2CCCN2C(=O)[C@@H](Cc2ccccc2)NC(=O)[C@@H]2CCCNN2C(=O)[C@H]2CCCNN2C1=O [Example 97] (cyclo([dY]I[X6][X12][dF]P))
4,> 10000 nM,"CC[C@H](C)[C@@H]1NC(=O)[C@@H](Cc2ccccc2)NC(=O)[C@@H]2CCCN2C(=O)[C@@H](Cc2ccccc2)NC(=O)[C@H](c2ccccc2)NC(=O)[C@@H](c2ccccc2)NC1=O [Example 70, c-[D-Phenylalanyl-L-isoleucyl-D-phenylglycinyl-L-phenylglycinyl-D-phenylalanyl-L-prolyl]] (cyclo(I[dPhg][Phg][dF]P[dF]))"
5,10000 nM,"CC[C@H](C)[C@@H]1NC(=O)[C@@H](Cc2ccccc2)NC(=O)[C@@H]2CCCN2C(=O)[C@@H](Cc2ccccc2)NC(=O)[C@H](Cc2c[nH]cn2)NC(=O)[C@@H](Cc2c[nH]cn2)NC1=O [Example 69, c[D-Phenylalanyl-L-isoleucyl-D-histidinyl-L-histidinyl-D-phenylalanyl-L-prolyl]] (cyclo(H[dF]P[dF]I[dH]))"
6,5080 nM,CC[C@H](C)[C@@H]1NC(=O)[C@@H](Cc2ccccc2)NC(=O)[C@@H]2CCCN2C(=O)[C@@H](Cc2ccccc2)NC(=O)[C@H](CC(N)=O)NC(=O)[C@H](CCC(N)=O)NC1=O [Example 100] (cyclo([dF]IQN[dF]P))
7,> 10000 nM,"C[C@@H](O)[C@@H]1NC(=O)[C@@H](Cc2ccccc2)NC(=O)[C@@H]2CCCN2C(=O)[C@@H](Cc2ccccc2)NC(=O)[C@@H]2CCCN2C(=O)[C@H]2CCCN2C1=O [Example 73, c-[D-Phenylalanyl-L-threoninyl-D-prolyl-L-prolyl-D-phenylalanyl-L-prolyl]] (cyclo([dF]P[dF]T[dP]P))"
8,> 10000 nM,"CC[C@H](C)[C@@H]1NC(=O)[C@@H](Cc2ccccc2)NC(=O)[C@@H]2CCCN2C(=O)[C@@H](CCC(N)=O)NC(=O)[C@@H]2CCCN2C(=O)[C@H]2CCCN2C1=O [Example 68, c-[D-Phenylalanyl-L-isoleucyl-D-prolyl-L-prolyl-D-α-glutaminyl-L-prolyl]] (cyclo([dF]I[dP]P[dQ]P))"
9,6.7 nM,"CC[C@H](C)[C@@H]1NC(=O)[C@@H](Cc2ccc3ccccc3c2)NC(=O)[C@@H]2CCCN2C(=O)[C@@H](Cc2c[nH]cn2)NC(=O)[C@H]2CNCCN2C(=O)[C@H]2CCCCN2C1=O [Example 161, c-[D-2-Naphthylalanyl-L-isoleucyl-D-pipecolyl-D-piperazin-2-yl-D-histidyl-L-prolyl]] (cyclo(I[dPip][dPip(4-aza)][dH]P[d2Nal]))"
10,> 10000 nM,CC[C@H](C)[C@@H]1NC(=O)[C@@H](Cc2ccccc2)NC(=O)[C@@H]2CCCN2C(=O)[C@@H](Cc2ccccc2)NC(=O)[C@H](C2CCCCC2)NC(=O)[C@@H](C2CCCCC2)NC1=O [Example 65] (cyclo([Chg][dF]P[dF]I[dChg]))
